Experimental data published in paper PMC7822474, “Repurposing the McoTI-II Rigid Molecular Scaffold in to Inhibitor of ‘Papain Superfamily’ Cysteine Proteases” (Pharmaceuticals, 2020).
Values belong to the compound of their own block, whether it stands above or below them. Where no end group is shown, it is not given here.

Tests used:
[1] = test system: papain; conditions: E-64 and its derivatives; cited from earlier work
[2] = test system: papain; assay: Proteolytic activity assay, BSA digestion by papain on SDS-PAGE; format: biochemical; conditions: BSA 1.0 mg/mL, 0.1 M sodium acetate pH 5.5, 0.1% SDS, E:S 1:10, 40 °C, 8 min, preincubated with papain
Experimental: The protein substrate, BSA, at a concentration of 1.0 mg/mL in 0.1 M sodium acetate buffer (pH 5.5) containing 0.1% SDS was incubated with papain, papain preincubated with E-64, and papain preincubated with Mco-CPI protein. The papain enzyme used was pre-activated with 2 mM dithiothreitol. The ratio of enzyme to the substrate (E:S) was maintained at 1:10. The digestion was allowed to be carried at 40 °C for 8 min. This method was adapted from Zucker et al., 1985 [59]. The degradation products of each reaction were analysed on 12% SDS-PAGE gel.

[3] = biological target: trypsin
[4] = test system: trypsin; assay: Inhibition of trypsin by recombinant McoTI-II (ZFR-AMC substrate); format: biochemical
[5] = test system: trypsin; conditions: cited from earlier work
Excerpt: McoTI-II is a stable cyclic peptide found in seeds of the plant Momordica cochinchinensis. It belongs to the trypsin inhibitor subfamily of cyclotides and has been the most preferred framework for grafting and engineering novel biological activities. […] A range of substitutions in the trypsin inhibitory reactive site (loop 1) and the P1 residue have been used to develop a series of McoTI-I analogs with specificity towards alternate proteases with moderate affinity. […] Therefore, we expect that a modification involving a backbone cyclization would lead to further improvement in the e ...

Compound: CC(C)C[C@H](NC(=O)[C@H]1O[C@@H]1C(=O)O)C(=O)NCCCCN=C(N)N [E-64]
- IC50 against papain (in words) [1]: nanomolar range
- inhibition of papain proteolytic activity on BSA (in words) [2]: completely inhibit the proteolytic activity of papain with no digestion products observed on the gel

- inhibition of trypsin activity on ZFR-AMC (fluorescence), 50 mM Tris-HCl pH 8.0, 50 mM NaCl, 5 mM CaCl2 [3]: 2.12 µM
Compound: McoTI-II (Momordica cochinchinensis trypsin inhibitor-II), recombinant protein with tags (from UniProt P82409 1-34) (natural protein)

- IC50 ([4]; ZFR-AMC substrate, 50 mM Tris-HCl pH 8.0, 50 mM NaCl, 5 mM CaCl2, three technical replicates, read-out: IC50 against trypsin): 2120 nM
Compound: McoTI-II recombinant protein: McoTI-II protein with tags, recombinantly expressed as starting control (SGSDGGVCPKILKKCRRDSDCPGACICRGNGYCG; ends and bridges not checked; also: with tags (recombinant); UniProt P82409 1-34, looked up)
- % trypsin inhibition, concentration dependence (in words) ([4]; Supplementary Figure S6E): An increase in % trypsin inhibition

Compound: McoTI-II: stable cyclic peptide found in seeds of the plant Momordica cochinchinensis (cyclo(SGSDGGVCPKILKKCRRDSDCPGACICRGNGYCG); disulfide (positions not given here); ends not checked; also: three disulfides, pairing not given here; UniProt P82409 1-34, looked up)
- trypsin inhibition range (in words) ([5]; McoTI-II purified from plant sources or chemically synthesized as a cyclic molecule): sub-nM range
- trypsin inhibitory activity (in words) ([5]; natural McoTI-II): potent (sub-nM)
